Laboratory results reported in a compilation of properties of binary mixtures (doi:10.1016/j.seppur.2020.117103).
Values belong to the compound of their own block, whether it stands above or below them.

Assay: xn = mol fraction of the nth substance listed
Settings: 298.15 K, 100 kPa

- speed of sound (x2 = 0): 1851 m/s
- speed of sound (x2 = 0.2018): 1813 m/s
- speed of sound (x2 = 0.3185): 1780 m/s
- speed of sound (x2 = 0.4076): 1750 m/s
- speed of sound (x2 = 0.5037): 1711 m/s
- speed of sound (x2 = 0.5936): 1655 m/s
- speed of sound (x2 = 0.6923): 1585 m/s
- speed of sound (x2 = 0.805): 1477 m/s
- speed of sound (x2 = 0.9014): 1328 m/s
Compound: CC[n+]1ccn(C)c1.N#C[S-] + CO

- speed of sound (x2 = 0): 1851 m/s
- speed of sound (x2 = 0.2134): 1797 m/s
- speed of sound (x2 = 0.345): 1751 m/s
- speed of sound (x2 = 0.3836): 1729 m/s
- speed of sound (x2 = 0.6181): 1592 m/s
- speed of sound (x2 = 0.6948): 1524 m/s
- speed of sound (x2 = 0.8944): 1285 m/s
Compound: CC[n+]1ccn(C)c1.N#C[S-] + CCO

- speed of sound (x1 = 1): 1103 m/s
Compound: CO + CC[n+]1ccn(C)c1.N#C[S-]

- speed of sound (x1 = 1): 1142 m/s
Compound: CCO + CC[n+]1ccn(C)c1.N#C[S-]
